From paper PMC11249646, “Small-Molecule Disruptors of the Interaction between Calcium- and Integrin-Binding Protein 1 and Integrin αIIbβ3 as Novel Antiplatelet Agents” (ACS Pharmacology & Translational Science, 2024)
Like-named read-outs stand apart in the source and are kept apart here.

How the values were obtained:
[1] = target: T1, GST-CIB1 : F-scrambled peptide (Homo sapiens, UniProt Q99828); experiment: FP scrambled-peptide counter screen, 1536-well format; type: binding; conditions: for Confirm? (counterscreen): YES/NO; for Curve Class (counterscreen) / COUNTERSCREEN Curve Class: qHTS curve class; for COUNTERSCREEN Confirm?: YES/NO call
T1 construct: made in house; host or cells: BL-21 plus RIL cells (E. coli)
T1 sequence (Q99828 1-191): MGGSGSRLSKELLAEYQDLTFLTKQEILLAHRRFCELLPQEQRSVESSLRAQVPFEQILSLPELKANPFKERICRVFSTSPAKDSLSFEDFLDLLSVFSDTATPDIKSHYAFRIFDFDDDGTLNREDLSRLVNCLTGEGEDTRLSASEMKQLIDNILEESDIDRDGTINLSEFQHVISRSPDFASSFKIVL

[2] = target: T2, CIB1 and αIIb interaction (CIB1-GST : F-αIIb peptide) (Homo sapiens, UniProt Q99828); experiment: FP assay, 1536-well qHTS format (primary and confirmatory screen); type: binding; conditions: for Curve Class (confirmatory screen) / CONFIRMATORY SCREEN Curve Class: qHTS curve class
T2 construct: made in house; host or cells: BL-21 plus RIL cells (E. coli)
T2 sequence (Q99828 1-191): T1 sequence (Q99828 1-191)

[3] = counterscreen, negative sign = inhibitory curve
[4] = confirmatory screen, negative sign = inhibitory curve
[5] = qHTS FP screen hits, Table S2, negative = inhibition
[6] = qHTS FP screen hits, Table S2, one class per curve where COUNT > 1, negative sign = inhibitory curve
[7] = qHTS FP screen hits, Table S2, read-out: IC50
[8] = Table S3, counterscreen, a negative sign marks inhibitory curves
[9] = Table S3, counterscreen, negative = inhibition
[10] = Table S3, confirmatory screen, a negative sign marks inhibitory curves
[11] = Table S3, confirmatory screen, negative = inhibition
[12] = qHTS primary screen hits, Table S2, negative = inhibition
[13] = qHTS primary screen hits, Table S2, read-out: IC50
[14] = Table S3, counterscreen, read-out: IC50 [μM] (counterscreen)
[15] = Table S3, confirmatory screen, YES/NO call
[16] = Table S3, confirmatory screen, read-out: IC50 [μM] (confirmatory screen)
[17] = scrambled-peptide counterscreen
[18] = confirmatory screen, YES/NO call
[19] = confirmatory screen, negative = inhibition
[20] = confirmatory screen, read-out: CONFIRMATORY SCREEN IC50
[21] = counterscreen, read-out: IC50 [μM] (counterscreen)

SMILES	Efficacy (%) (counterscreen) ([1]; counterscreen)	Efficacy (%) (confirmatory screen) ([2]; confirmatory screen)	Confirm? (confirmatory screen) ([2]; confirmatory screen, YES/NO)	Curve Class (confirmatory screen) [2, 4]	Efficacy (%) [2, 5] [%]	Curve Class [2, 6]	IC50 [2, 7] [µM]	Curve Class (counterscreen) [1, 8]	Efficacy (%) (counterscreen) [1, 9]	Curve Class (confirmatory screen) [2, 10]	Efficacy (%) (confirmatory screen) [2, 11]	Efficacy (%) [2, 12] [%]	IC50 [2, 13] [µM]	IC50 [1, 14] [µM]	Confirm? (confirmatory screen) [2, 15]	IC50 [2, 16] [µM]	other results
CN1CCN([C@H]2CC[C@H](n3cc(-c4ccc(Oc5ccccc5)cc4)c4c(N)ncnc43)CC2)CC1.Cl [NCGC00370980-02]	-17	-44	YES	-2.2	-56	-2.2	50.1										Confirm? (counterscreen) ([1]; counterscreen): YES; Curve Class (counterscreen) [1, 3]: 4
COc1cc2ccccc2cc1C(=O)N/C(S)=N/c1cc(C(=O)O)ccc1C.O=C(O)C(F)(F)F [NCGC00479324-01]					-25		12.6										COUNTERSCREEN Efficacy (%) ([1]; counterscreen): 12%; COUNTERSCREEN Curve Class ([1]; counterscreen): 4; CONFIRMATORY SCREEN Efficacy (%) ([2]; confirmatory screen): -38%; CONFIRMATORY SCREEN Curve Class ([2]; confirmatory screen): 4
CC(C)(O)CCc1ccc(OCc2cc(-c3cccc(OC(F)F)c3)c3ncccc3c2)cc1 [NCGC00249759-02]								4	-28	4	-25	-59	24.1				Curve Class ([2]; qHTS primary screen hits, Table S2, negative sign = inhibitory curve, several classes where COUNT > 1): -2.2
COc1cccc(CN(C)c2ccc(S(=O)(=O)Nc3nccs3)cc2)c1O.O=C(O)C(F)(F)F [NCGC00318978-01]					-24		17.8	-2.4	-33	-2.4	-35			39.8	YES	44.7	
O=C(Cc1ccc(Cl)c(Cl)c1)Nc1ccc(S(=O)(=O)Nc2nncs2)cc1.O=C(O)C(F)(F)F [NCGC00248349-02]												-24	11.2				COUNTERSCREEN Efficacy (%) [1, 17]: 12%; COUNTERSCREEN Confirm? [1, 17]: YES; COUNTERSCREEN Curve Class [1, 17]: 4; CONFIRMATORY SCREEN Confirm? [2, 18]: YES; CONFIRMATORY SCREEN Curve Class [2, 4]: -1.4; CONFIRMATORY SCREEN Efficacy (%) [2, 19]: -31%; IC50 [2, 20]: 12.6 µM; Curve Class ([2]; qHTS primary screen hits, Table S2, negative sign = inhibitory curve): -1.4
O=C(O)C(F)(F)F.O=C1Nc2ccccc2/C1=N/NC(=S)Nc1ccc(O)cc1 [NCGC00229525-01]					-42	-1.2	8.9	-1.2	-61	-1.4	-32			6.3	YES	11.2	
CC1=C(C(=O)Nc2cccc(C(=O)O)c2)C(c2ccccc2Cl)N=C(Nc2nc3ccccc3o2)N1.O=C(O)C(F)(F)F (stereo not shown) [NCGC00351024-01]	141	-26	YES	-2.4	-37	-2.2	39.8										Confirm? (counterscreen) ([1]; counterscreen): YES; IC50 [1, 21]: 79.4 µM
CC1(C)C=CN2C(=O)C3=CCCN3C(=O)[C@@H]2C[C@@]12Nc1ccccc1C2=O [NCGC00380729-01]	-55	-68	YES	-2.2	-42	-2.2	44.7										Curve Class (counterscreen) [1, 3]: -2.2; IC50 [1, 21]: 39.8 µM
COc1cccc(C(=O)c2no[n+]([O-])c2C(=O)c2cccc(OC)c2)c1 [NCGC00351157-02]								-1.2	-60	-1.4	-52	-53	22.2	17.8	YES	12.6	
CC(C)NC(=S)N/N=C1\C(=O)Nc2ccccc21.O=C(O)C(F)(F)F [NCGC00229535-01]					-24		12.6										COUNTERSCREEN Efficacy (%) [1, 17]: -45%; COUNTERSCREEN Confirm? [1, 17]: YES; COUNTERSCREEN Curve Class [1, 17]: -1.2; IC50 ([1]; scrambled-peptide counterscreen, read-out: COUNTERSCREEN IC50): 11.2 µM; CONFIRMATORY SCREEN Confirm? [2, 18]: YES; CONFIRMATORY SCREEN Curve Class [2, 4]: -1.4; CONFIRMATORY SCREEN Efficacy (%) [2, 19]: -48%; IC50 [2, 20]: 2.8 µM
